The source made the active and inactive calls. The rule behind the calls is not given here.
Columns and labels:
[1] = Cytotoxicity against human NCI60 cells; assay type: functional
Paracentrotus lividus [2] = test: Antiproliferative activity in sea urchin embryo assessed as destabilization of microtubule by measuring embryo spinning after 15 mins to 20 hrs; assay type: functional
Paracentrotus lividus [3] = test: Antiproliferative activity in sea urchin embryo assessed as antimitotic activity by measuring cleavage arrest exposed for 8 to 20 mins after fertilization and 45 to 55 mins before first mitotic cycle completion measured 2.5 to […] after fertilization; assay type: functional
Paracentrotus lividus [4] = test: Antiproliferative activity in sea urchin embryo assessed as antimitotic activity by measuring cleavage alteration exposed for 8 to 20 mins after fertilization and 45 to 55 mins before first mitotic cycle completion measured 2.5 to […] after fertilization; assay type: functional
Paracentrotus lividus [5] = test: Antiproliferative activity in sea urchin embryo assessed as destabilization of microtubule by tuberculate eggs after 15 mins to 20 hrs; assay type: functional, organism-based
Tubulin = Tubulin (Bos taurus, UniProt Q6B856+Q862L2+Q862F3); test: Inhibition of bovine tubulin polymerization by turbidity assay; assay type: protein assay
RXF 393 = test: Cytotoxicity against human RXF393 cells; assay type: functional
[6] = Cytotoxicity against human OVCAR8 cells; assay type: functional
[7] = Cytotoxicity against human OVCAR3 cells; assay type: functional
MDA-MB-435 = test: Cytotoxicity against human MDA-MB-435 cells; assay type: functional
SF-539 = test: Cytotoxicity against human SF539 cells; assay type: functional
[8] = Cytotoxicity against human NCI-ADR-RES cells; assay type: functional

SMILES	GI50 [1]	EC (Paracentrotus lividus [2])	EC (Paracentrotus lividus [3])	EC (Paracentrotus lividus [4])	Activity (Paracentrotus lividus [5])	IC50 (Tubulin)	further results
COc1cc2c(c(OC)c1OC)-c1ccc(OC)c(=O)cc1[C@@H](NC(C)=O)CC2 [COLCHICINE]	132 nM	50 µM	100 µM	50 µM	Active		
Nc1nonc1-c1nc2ccccc2n1Cc1cccc2ccccc12						7030 nM	
CC[C@]1(O)C[C@@H]2CN(CCc3c([nH]c4ccccc34)[C@@](C(=O)OC)(c3cc4c(cc3OC)N(C)[C@H]3[C@@](O)(C(=O)OC)[C@H](OC(C)=O)[C@]5(CC)C=CCN6CC[C@]43[C@@H]65)C2)C1 [VINBLASTINE]	1.37 nM	2 µM	0.2 µM	0.1 µM	Active		TGI (RXF 393): 50 nM; GI50 (RXF 393; read-out: GI50): 1 nM; TGI ([6]; OVCAR-8): 320 nM; GI50 ([6]; OVCAR-8, read-out: GI50): 1.6 nM; CC50 ([6]; OVCAR-8, read-out: LC50 (the source's name)): 2000 nM; TGI ([7]; OVCAR-3): 1.6 nM; GI50 ([7]; OVCAR-3, read-out: GI50): 0.3 nM; CC50 ([7]; OVCAR-3, read-out: LC50 (the source's name)): 500 nM; TGI (MDA-MB-435): 0.25 nM; GI50 (MDA-MB-435; read-out: GI50): 0.25 nM; CC50 (MDA-MB-435; read-out: LC50 (the source's name)): 1 nM; TGI (SF-539): 2.5 nM; GI50 (SF-539; read-out: GI50): 0.6 nM; TGI [8]: 790 nM; GI50 ([8]; read-out: GI50): 100 nM
Nc1nonc1-c1nc2ccccc2n1Cc1ccc(F)cc1	8910 nM	>4 µM	>4 µM	2 µM			
Nc1nonc1-c1nc2ccccc2n1CC(=O)Nc1ccccc1Cl						7360 nM	
Nc1nonc1-c1nc2ccccc2n1Cc1cccc(C(F)(F)F)c1						13270 nM	

Source: ChEMBL document CHEMBL3421596, “A facile synthesis and microtubule-destabilizing properties of 4-(1H-benzo[d]imidazol-2-yl)-furazan-3-amines” (Eur J Med Chem, 2015)
